Experimental data taken from patent US20040242591A1, “Oxazolidinone derivatives as pontential antimicrobials” (priority 2001, published 2004).

Legend:
S.aureus ATCC 25923 = assay: MIC by agar incorporation method, S.aureus 25923; type: cell-based, Staphylococus aureus; parameters: unit not given here; conditions: Mueller Hinton agar, 10^4 CFU/spot, 18 hours
MRSA 15187 = assay: MIC by agar incorporation method, MRSA 15187; type: cell-based, Methicillin Resistant Staphylococcus aureus; parameters: unit not given here; conditions: Mueller Hinton agar, 10^4 CFU/spot, 24 hours
Text: 2) MRSA 15187—Methicillin Resistant Staphylococcus aureus

MRSA 562 = assay: MIC by agar incorporation method, MRSA 562; type: cell-based, Methicillin Resistant Staphylococcus aureus; parameters: unit not given here; conditions: Mueller Hinton agar, 10^4 CFU/spot, 24 hours
MRSA 33 = assay: MIC by agar incorporation method, MRSA 33; type: cell-based, Methicillin Resistant Staphylococcus aureus; parameters: unit not given here; conditions: Mueller Hinton agar, 10^4 CFU/spot, 24 hours
Ent. faecalis ATCC 29212 = assay: MIC by agar incorporation method, E.faecalis 29212; type: cell-based, Enterococcus faecalis; parameters: unit not given here; conditions: Mueller Hinton agar, 10^4 CFU/spot, 18 hours
Text: 3) Ent. faecalis ATCC 29212—Enterococcus faecalis ATCC 29212

VRE 6A = assay: MIC by agar incorporation method, VRE 6A; type: cell-based, Enterococcus faecium; parameters: unit not given here; conditions: Mueller Hinton agar, 10^4 CFU/spot, 18 hours
Text: 4) Ent. faecium […]—Enterococcus faecium 6A Van®, Cipro®

Strep.pyog. ATCC 19615 = assay: MIC by agar incorporation method, S.pyogenes 19615; type: cell-based, Streptococcus pyogenes; parameters: unit not given here; conditions: Mueller Hinton agar, 10^4 CFU/spot, 18 hours
Text: 6) Strep.pyog. ATCC 19615—Streptococcus pyogenes

Strep. pne. ATCC 6303 = assay: MIC by agar incorporation method, S. pneum 6303; type: cell-based, Streptococcus pneumoniae; conditions: Mueller Hinton agar, 10^4 CFU/spot, 18 hours
Text: 5) Strep. pne. ATCC 6303—Streptococcus pneumoniae ATCC 6303

S. pneum AB 34 = assay: MIC by agar incorporation method, S. pneum AB 34; type: cell-based, Streptococcus pneumoniae; parameters: unit not given here; conditions: Mueller Hinton agar, 10^4 CFU/spot, 18 hours

Row | Compound | In Vitro (MIC) S.aureus 25923 (S.aureus ATCC 25923) | In Vitro (MIC) MRSA 15187 (MRSA 15187) | In Vitro (MIC) MRSA 562 (MRSA 562) | In Vitro (MIC) MRSA 33 (MRSA 33) | In Vitro (MIC) E.faecalis 29212 (Ent. faecalis ATCC 29212) | In Vitro (MIC) VRE 6A (VRE 6A) | In Vitro (MIC) S.pyogenes 19615 (Strep.pyog. ATCC 19615) | In Vitro (MIC) S. pneum 6303 (Strep. pne. ATCC 6303) | In Vitro (MIC) S. pneum AB 34 (S. pneum AB 34)
1 | CC(=O)NC[C@H]1CN(c2ccc(N3CCN(Cc4cc(N(C)C)c([N+](=O)[O-])s4)CC3)c(F)c2)C(=O)O1 [Compound No. 19, (S)-N-[[3-[3-Fluoro-[N-1-[4-{2-thiophen-(4-dimethylamino-5-nitro)methyl}]piperazinyl]phenyl]-2-oxo-5-oxazolidinyl]methyl]-acetamide] | 4 | 4 | 8 | 8 | 4 | 4 | 2 | 2 µg/mL | 2
2 | CC(=O)NC[C@H]1CN(c2ccc(N3CCN(C(=O)c4occc4C)CC3)c(F)c2)C(=O)O1 [Compound No. 36, (S)-N-[[3-[3-Fluoro-4-[N-1-[4-{2-furoyl-(3-methyl)}]piperazinyl]phenyl]-2-oxo-5-oxazolidinyl]methyl]acetamide] | 2 | 2 | 2 | 2 | 2 | 1 | 1 | 0.5 µg/mL | 1
3 | CC(=O)NC[C@H]1CN(c2ccc(N3CCN(C(=O)c4ccc([N+](=O)[O-])o4)CC3)c(F)c2)C(=O)O1 [Compound No. 39, (S)-N-[[3-[3-Fluoro-4-[N-1-[4-{2-Furoyl-(5-nitro)acylic}]piperazinyl]phenyl]-2-oxo-5-oxazolidinyl]methyl]-acetamide] | 0.5 | 0.5 | 0.25 | 0.25 | 0.5 | <0.125 | <0.125 | 0.5 µg/mL | 4
4 | O=C(CCl)NC[C@H]1CN(c2ccc(N3CCN(Cc4ccc([N+](=O)[O-])s4)CC3)c(F)c2)C(=O)O1 [Compound No. 47, (S)-N-[[3-[3-Fluoro-4[N-1[4-[2-thiophenyl-(5-nitro)methyl}]piperazinyl]-phenyl]-2-oxo-5-oxazolidinyl]methyl]monochloroacetamide] | 4 | 4 | 4 | 4 | 4 | 4 | 1 | 2 µg/mL | 4
5 | CC(=O)NC[C@H]1CN(c2ccc(N3CCN(Cc4coc([N+](=O)[O-])c4)CC3)c(F)c2)C(=O)O1 [Compound No. 8, (S)-N-[[3-[3-Fluoro-4-[N-1-[4-{3-furyl(5-nitro)methyl}]piperazinyl]phenyl]-2-oxo-5-oxazolidinyl]methyl]acetamide] | 8 | 8 | 4 | 4 | 8 | 4 | 4 | 8 µg/mL | 16
6 | CC(=O)NC[C@H]1CN(c2ccc(N3CCN(C(=O)c4ccc([N+](=O)[O-])s4)C(C)C3)c(F)c2)C(=O)O1 (stereo partly drawn) [Compound No. 70, (S)-N-[[3-[3-Fluoro-4-[N-1-[3-methyl-4-{2-thienoyl-(5-nitro)}]-piperazinyl]phenyl]-2-oxo-5-oxazolidinyl]methyl]acetamide] | <0.25 | 0.5 | <0.25 | <0.25 | 2 | 1 | <0.25 | 4 µg/mL | 4
7 | CC(=O)NC[C@H]1CN(c2ccc(N3C(C)CN(C(=O)Cc4cccs4)CC3C)c(F)c2)C(=O)O1 (stereo partly drawn) [Compound No. 66, (S)-N-[[3-[3-Fluoro-4-[N-1-[2,6-dimethyl-4-(2-thienylacetyl)]-piperazinyl]phenyl]-2-oxo-5-oxazolidinyl]methyl]acetamide] | 8 | 8 | 8 | 8 | 8 | 8 | 16 | 16 µg/mL | 16
8 | CC(=O)NC[C@H]1CN(c2ccc(N3CCC(CN(C)Cc4ccc([N+](=O)[O-])o4)CC3)c(F)c2)C(=O)O1 [Compound No. 93] | 2 | 1 | 1 | 1 | 2 | 4 | 1 | 4 µg/mL | 4
9 | CCN(C(=O)c1ccc([N+](=O)[O-])s1)C1CCN(c2ccc(N3C[C@H](CNC(C)=O)OC3=O)cc2F)CC1 [Compound No. 79, (S)-N-[[3-[3-Fluoro-4-[4-{N-ethyl-2-thienoyl-(5-nitro)}aminopiperidine-1-yl]phenyl]-2-oxo-5-oxazolidinyl]methyl]acetamide] | 0.5 | 0.5 | 0.5 | 0.5 | 2 | 2 | 0.5 | 4 µg/mL | 4
10 | CC(=O)NC[C@H]1CN(c2ccc(N3CCN(Cc4cc([N+](=O)[O-])cn4C)CC3)c(F)c2)C(=O)O1 [Compound No. 11] | 4 | 4 | 4 | 4 | 4 | 4 | 2 | 2 µg/mL | 4
11 | CC(=O)NC[C@H]1CN(c2ccc(N3CCC(N(C)Cc4ccc([N+](=O)[O-])s4)C3)c(F)c2)C(=O)O1 (stereo partly drawn) [Compound No. 90, (S)-N-[[3-[3-Fluoro-4-[N-1,3-[N-methyl[N-{2-thiophenyl(5-nitro)methyl}]aminopyrodinyl]phenyl]]-2-oxo-5-oxazolidinyl]methyl]acetamide] | 4 | 2 | 2 | 4 | 4 | 4 | 2 | 4 µg/mL | 4
12 | CC(=O)NC[C@H]1CN(c2ccc(N3CCN(C(C)c4ccc([N+](=O)[O-])o4)CC3)c(F)c2)C(=O)O1 (stereo partly drawn) [Compound No. 101] | 1 | 1 | 1 | 1 | 0.125 | 0.25 | 0.06 | 1 µg/mL | 2
